Reference: the CheMixHub viscosity set

Test: xn = mol fraction of the nth substance listed

C[Si]1(C)O[Si](C)(C)O[Si](C)(C)O[Si](C)(C)O1 + CCCCCCCCCCCCCC
viscosity [mPa·s], 103 kPa
Details	298.15 K	308.15 K	318.15 K
x1 = 0.05	1.944	1.605	1.347
x1 = 0.1	1.905	1.579	1.327
x1 = 0.15	1.881	1.56	1.312
x1 = 0.2	1.859	1.536	1.293
x1 = 0.25	1.853	1.523	1.282
x1 = 0.3	1.843	1.527	1.287
x1 = 0.35	1.833	1.52	1.281
x1 = 0.4	1.831	1.518	1.278
x1 = 0.45	1.82	1.509	1.274
x1 = 0.5	1.815	1.507	1.273
x1 = 0.55	1.817	1.51	1.275
x1 = 0.6	1.824	1.515	1.279
x1 = 0.65	1.831	1.522	1.285
x1 = 0.7	1.844	1.533	1.294
x1 = 0.7498	1.861	1.548	1.307
x1 = 0.8	1.887	1.571	1.324
x1 = 0.85	1.922	1.6	1.349
x1 = 0.8999	1.965	1.632	1.376
x1 = 0.95	2.014	1.672	1.406

ClCCl + ClCCCl
303.15 K, 101.3 kPa
Details	viscosity [mPa·s]
x2 = 0.0618	0.408
x2 = 0.1258	0.4242
x2 = 0.2132	0.4486
x2 = 0.3029	0.474
x2 = 0.419	0.5092
x2 = 0.5226	0.5436
x2 = 0.6033	0.5714
x2 = 0.7998	0.6445
x2 = 0.8933	0.6822
x2 = 0.9517	0.7068

CC(=O)O + CCO
298.15 K, 101.33 kPa
Details	viscosity [mPa·s]
x2 = 0.0808	1.246
x2 = 0.2919	1.327
x2 = 0.3542	1.335
x2 = 0.5697	1.24
x2 = 0.6571	1.195
x2 = 0.75	1.15

ClCCCl + c1ccccc1
101 kPa
Details	viscosity [mPa·s]
293.15 K, x2 = 0.09	0.7903
293.15 K, x2 = 0.2	0.7512
293.15 K, x2 = 0.3	0.7172
293.15 K, x2 = 0.392	0.6824
293.15 K, x2 = 0.525	0.6583
293.15 K, x2 = 0.577	0.6545
293.15 K, x2 = 0.683	0.634
293.15 K, x2 = 0.81	0.636
293.15 K, x2 = 0.9	0.6404
298.15 K, x2 = 0.2	0.686
298.15 K, x2 = 0.4	0.634
298.15 K, x2 = 0.6	0.601
298.15 K, x2 = 0.8	0.59
313.15 K, x2 = 0.09	0.6098
313.15 K, x2 = 0.2	0.5936
313.15 K, x2 = 0.525	0.5387
313.15 K, x2 = 0.81	0.508

ClCCl + COCCO
298.15 K, 101 kPa
Details	viscosity [mPa·s]
x2 = 0.1103	0.5177
x2 = 0.2181	0.5832
x2 = 0.3235	0.6707
x2 = 0.4266	0.7669
x2 = 0.5274	0.8908
x2 = 0.626	1.029
x2 = 0.7225	1.168
x2 = 0.817	1.295
x2 = 0.9095	1.428

CCNc1ccccc1 + CCCCO
303.15 K, 101 kPa
Details	viscosity [mPa·s]
x1 = 0.0702	2.203
x1 = 0.1296	2.187
x1 = 0.1901	2.173
x1 = 0.2568	2.154
x1 = 0.3204	2.132
x1 = 0.3725	2.114
x1 = 0.4414	2.085
x1 = 0.5136	2.047
x1 = 0.5841	2.007
x1 = 0.6525	1.97
x1 = 0.7225	1.926
x1 = 0.7954	1.873
x1 = 0.8741	1.819

ClCCCl + ClC(Cl)Cl
303.15 K, 101.3 kPa
Details	viscosity [mPa·s]
x1 = 0.0711	0.524
x1 = 0.1645	0.5402
x1 = 0.216	0.5493
x1 = 0.3322	0.5723
x1 = 0.4444	0.5947
x1 = 0.5227	0.6115
x1 = 0.6269	0.6349
x1 = 0.7591	0.6659
x1 = 0.7901	0.6733
x1 = 0.8637	0.692
x1 = 0.935	0.7102

CCC(=O)N(CC)CC + O
298.16 K, 101 kPa
Details	viscosity [mPa·s]
x2 = 0.0649	1.31
x2 = 0.1684	1.49
x2 = 0.2965	1.79
x2 = 0.4448	2.27
x2 = 0.5923	2.93
x2 = 0.7652	3.86
x2 = 0.8001	3.91
x2 = 0.8352	3.83
x2 = 0.8933	3.34
x2 = 0.9093	3.03

N=C(N)NCCC[C@H](N)C(=O)[O-].[Na+] + O
viscosity [mPa·s], 101 kPa
Details	x1 = 0.004484	x1 = 0.008927	x1 = 0.01333	x1 = 0.0177	x1 = 0.02202	x1 = 0.02631
293.15 K	1.199	1.453	1.745	2.107	2.501	2.956
303.15 K	0.963	1.149	1.361	1.615	1.907	2.248
313.15 K	0.78	0.925	1.087	1.278	1.493	1.744
323.15 K	0.645	0.759	0.881	1.033	1.201	1.384
